# Source: patent US7112339B1, “Compositions for controlled release of a biologically active agent, and the preparation thereof” (DelSiTech Oy, priority 1999, dated 2006)
# Tested on: Factor Xa
# Assay: Factor Xa assay (HEPRN) of heparin biological activity
# Assay type: biochemical
# Description: The silica sol loaded with heparin was prepared by a two step sol-gel process using acid as a catalyst (Ellerby et al. 1992). The following reagents were used, tetraethoxysilane (TEOS) (Aldrich), deionized water, nitric acid (HNO3) (Merck), acetic acid (CH3COOH) (Merck), ammonium hydroxide (NH4OH) (Merck)) and heparin sodium salt (Orion Corporation, Finland). The biological activity of the used heparin was 84 IU/mg measured by Factor Xa assay (HEPRN). The first step of the reaction series was a hydrolysis reaction between water and alkoxide. The mol ratio of the silica sol was TEOS:H2O:HNO3=1:15:0.0015 and TEOS:H2O:CH3COOH=1:15:0.026, respectively. Modification of the nitric acid catalyzed sol was carried out by co-hydrolysis of TEOS with the following organomodified (i.e. alkylsubstituted) alkoxysilanes: dimethyldiethoxysilane Me2Si(OEt)2 (DMDES) (Lancaster), methyltriethoxysilane MeSi(OEt)3(METES) (Aldrich) or ethyltriethoxysilane EtSi(OEt)3 (ETES) (Lancaster). For the partial substitution of TEOS, 10 or 25 mol-% organomodified alkoxysilane was used. After the first step, i.e. hydrolysis reaction, pH was raised to 4.54.8 with base (0.1 or 1 M NH4OH) before heparin addition. […] The concentration of heparin in silica sol ranged from 1 wt % to 4 wt % calculated on the sol, corresponding to 6.8–29.2 wt % in the air dried silica xerogel. […]
substance,measurement,value
heparin,biological activity of the used heparin,84 IU/mg
